IC50 data for 32 compounds are collected here from patent publication US10487068B2, “Pyridazine derivatives as RORc modulators” (Genentech, Inc., priority 2015, dated 2019).

This experiment addresses T1, RORc ligand binding domain (Homo sapiens, UniProt P51449).
T1 sequence (P51449 269-508 limits assumed): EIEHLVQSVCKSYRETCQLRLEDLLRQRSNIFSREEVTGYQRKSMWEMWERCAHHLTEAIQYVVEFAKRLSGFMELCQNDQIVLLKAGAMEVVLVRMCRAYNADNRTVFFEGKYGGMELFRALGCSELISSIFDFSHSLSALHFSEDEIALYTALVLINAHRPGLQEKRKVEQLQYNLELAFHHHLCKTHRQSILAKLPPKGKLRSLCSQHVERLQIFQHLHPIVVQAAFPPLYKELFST
Description: In Vitro RORc Ligand Binding Assay. The settings on record: RORc IC50, radioligand 25-[3H]hydroxycholesterol 6 nM; 0.6 ug/mL RORc receptor; 3 h at 25° C.

Molecules are shown by their SMILES.

Broadly, the IC50 is the point on the concentration scale where inhibition reaches its midpoint. Read a low IC50 as greater potency in that assay. For `CC(C)(O)c1cc(-c2nccc([C@@]34CC[C@@H](c5cc(-c6c(F)cccc6F)nnc53)C4(C)C)n2)ccn1` [Example 372], the IC50 amounted to 2.6 nM. This lies in the single-digit nanomolar range. Compound `CC1(C)[C@H]2CC[C@]1(c1ccnc(-c3ccc(C(N)=O)nc3)n1)c1nnc(-c3c(F)cccc3F)cc12` [Example 373] came in with an IC50 of 4 nM.

`CC1(C)[C@H]2CC[C@]1(c1ccnc(-c3ccc(CO)nc3)n1)c1nnc(-c3c(F)cccc3F)cc12` [Example 374] gave a half-maximal inhibitory concentration (IC50) of 5.5 nM. `Cc1ncn(-c2cncc([C@]34CC[C@H](c5cc(-c6c(F)cccc6F)nnc53)C4(C)C)n2)n1` [Example 375] returned an IC50 of 10.4 nM.

Regarding `CC1(C)[C@H]2CC[C@]1(c1cncc(C(=O)N[C@@H]3COC(=O)C3)n1)c1nnc(-c3c(F)cccc3F)cc12` [Example 376, 6-((5R,8S)-3-(2,6-difluorophenyl)-9,9-dimethyl-5,6,7,8-tetrahydro-5,8-methanocinnolin-8-yl)-N-((S)-5-oxotetrahydrofuran-3-yl)pyrazine-2-carboxamide], the 50% inhibitory concentration (IC50) was 27.2 nM. This IC50 lies about 2.6-fold higher than the previous one.

With `CCC(O)(CC)c1coc(-c2cncc([C@@]34CC[C@@H](c5cc(-c6c(F)cccc6F)nnc53)C4(C)C)n2)n1` [Example 377, 3-(2-(6-((5R,8S)-3-(2,6-difluorophenyl)-9,9-dimethyl-5,6,7,8-tetrahydro-5,8-methanocinnolin-8-yl)pyrazin-2-yl)oxazol-4-yl)pentan-3-ol], the IC50 was found to be 5.3 nM. As for `C[C@H](O)c1coc(-c2cncc([C@@]34CC[C@@H](c5cc(-c6c(F)cccc6F)nnc53)C4(C)C)n2)n1` [Example 378, (S)-1-(2-(6-((5R,8S)-3-(2,6-difluorophenyl)-9,9-dimethyl-5,6,7,8-tetrahydro-5,8-methanocinnolin-8-yl)pyrazin-2-yl)oxazol-4-yl)ethanol], the figure is 6.8 nM; as for `C[C@@H](O)c1coc(-c2cncc([C@@]34CC[C@@H](c5cc(-c6c(F)cccc6F)nnc53)C4(C)C)n2)n1` [Example 379, (R)-1-(2-(6-((5R,8S)-3-(2,6-difluorophenyl)-9,9-dimethyl-5,6,7,8-tetrahydro-5,8-methanocinnolin-8-yl)pyrazin-2-yl)oxazol-4-yl)ethanol], 7.4 nM; as for `CC1(C)[C@H]2CC[C@]1(c1cncc(-c3nc(CC#N)co3)n1)c1nnc(-c3c(F)cccc3F)cc12` [Example 380, 2-(2-(6-((5R,8S)-3-(2,6-difluorophenyl)-9,9-dimethyl-5,6,7,8-tetrahydro-5,8-methanocinnolin-8-yl)pyrazin-2-yl)oxazol-4-yl)acetonitrile], 6.1 nM. Turning to `CC1(C)[C@@H]2CC[C@@]1(c1cncc(-n3ccc(CO)n3)n1)c1nnc(-c3c(F)cccc3F)cc12` [Example 381, (1-(6-((5S,8R)-3-(2,6-difluorophenyl)-9,9-dimethyl-5,6,7,8-tetrahydro-5,8-methanocinnolin-8-yl)pyrazin-2-yl)-1H-pyrazol-3-yl)methanol], the IC50 was 6 nM. The IC50 values of the last two compounds are within 1.5-fold of each other.

The compound `CC[C@@H](O)c1coc(-c2cncc([C@@]34CC[C@@H](c5cc(-c6c(F)cccc6F)nnc53)C4(C)C)n2)n1` [Example 382, (R)-1-(2-(6-((5R,8S)-3-(2,6-difluorophenyl)-9,9-dimethyl-5,6,7,8-tetrahydro-5,8-methanocinnolin-8-yl)pyrazin-2-yl)oxazol-4-yl)propan-1-ol] showed an IC50 of 7.3 nM. As to `CC[C@H](O)c1coc(-c2cncc([C@@]34CC[C@@H](c5cc(-c6c(F)cccc6F)nnc53)C4(C)C)n2)n1` [Example 383, (S)-1-(2-(6-((5R,8S)-3-(2,6-difluorophenyl)-9,9-dimethyl-5,6,7,8-tetrahydro-5,8-methanocinnolin-8-yl)pyrazin-2-yl)oxazol-4-yl)propan-1-ol], the IC50 stood at 8.2 nM.

For `CC1(C)[C@H]2CC[C@]1(c1cncc(-c3nc(CC(N)=O)co3)n1)c1nnc(-c3c(F)cccc3F)cc12` [Example 384, 2-(2-(6-((5R,8S)-3-(2,6-difluorophenyl)-9,9-dimethyl-5,6,7,8-tetrahydro-5,8-methanocinnolin-8-yl)pyrazin-2-yl)oxazol-4-yl)acetamide], the IC50 is 6.9 nM. In turn, `CC1(C)[C@H]2CC[C@]1(c1ccnc(-c3cccnc3O)n1)c1nnc(-c3c(F)cccc3F)cc12` [Example 385] came in with an IC50 of 19.7 nM. As to `CC1(C)[C@H]2CC[C@]1(c1ccnc(-c3cc[nH]c(=O)c3)n1)c1nnc(-c3c(F)cccc3F)cc12` [Example 386], the IC50 was 9.8 nM. `CC(C)(O)c1coc(-c2cncc([C@]34CC[C@H](c5cc(-c6c(F)cccc6F)nnc53)C4(C)C)n2)n1` [Example 387, 2-(2-(6-((5S,8R)-3-(2,6-difluorophenyl)-9,9-dimethyl-5,6,7,8-tetrahydro-5,8-methanocinnolin-8-yl)pyrazin-2-yl)oxazol-4-yl)propan-2-ol]: the half-maximal inhibitory concentration (IC50) was 8 nM. As for `CC(C)(O)c1ncc(-c2nccc([C@@]34CC[C@@H](c5cc(-c6c(F)cccc6F)nnc53)C4(C)C)n2)cn1` [Example 388], the IC50 was 7.3 nM. This IC50 and that of the compound before are within 1.5-fold of each other. In the case of `Cc1ncn(-c2cc([C@@]34CC[C@@H](c5cc(-c6c(F)cccc6F)nnc53)C4(C)C)cnn2)n1` [Example 389, (5R,8S)-3-(2,6-difluorophenyl)-9,9-dimethyl-8-(6-(3-methyl-1H-1,2,4-triazol-1-yl)pyridazin-4-yl)-5,6,7,8-tetrahydro-5,8-methanocinnoline], the IC50 was determined as 91.2 nM. Against the preceding compound, the IC50 is about 12-fold higher.

As for `Cc1ncnn1-c1cc([C@@]23CC[C@@H](c4cc(-c5c(F)cccc5F)nnc42)C3(C)C)cnn1` [Example 390, (5R,8S)-3-(2,6-difluorophenyl)-9,9-dimethyl-8-(6-(5-methyl-1H-1,2,4-triazol-1-yl)pyridazin-4-yl)-5,6,7,8-tetrahydro-5,8-methanocinnoline], the concentration for half-maximal inhibition (IC50) amounted to 317 nM. As for `Cc1cc([C@@]23CC[C@@H](c4cc(-c5c(F)cccc5F)nnc42)C3(C)C)nc(N)n1` [Example 391], the figure is 44.6 nM; as for `CC(C)(O)c1ccc(-c2cncc([C@@]34CC[C@@H](c5cc(-c6c(F)cccc6F)nnc53)C4(C)C)n2)cn1` [Example 392, 2-(5-(6-((5R,8S)-3-(2,6-difluorophenyl)-9,9-dimethyl-5,6,7,8-tetrahydro-5,8-methanocinnolin-8-yl)pyrazin-2-yl)pyridin-2-yl)propan-2-ol], 5.5 nM. `CC(C)(O)c1cc(-c2cncc([C@@]34CC[C@@H](c5cc(-c6c(F)cccc6F)nnc53)C4(C)C)n2)ccn1` [Example 393, 2-(4-(6-((5R,8S)-3-(2,6-difluorophenyl)-9,9-dimethyl-5,6,7,8-tetrahydro-5,8-methanocinnolin-8-yl)pyrazin-2-yl)pyridin-2-yl)propan-2-ol] returned an IC50 of 5.6 nM. In turn, `CC(C)(O)c1ncc(-c2cncc([C@@]34CC[C@@H](c5cc(-c6c(F)cccc6F)nnc53)C4(C)C)n2)cn1` [Example 394, 2-(5-(6-((5R,8S)-3-(2,6-difluorophenyl)-9,9-dimethyl-5,6,7,8-tetrahydro-5,8-methanocinnolin-8-yl)pyrazin-2-yl)pyrimidin-2-yl)propan-2-ol] displayed a 50% inhibitory concentration (IC50) of 9.1 nM. `CC1(C)[C@H]2CC[C@]1(c1cncc(-c3ccc(=O)[nH]c3)n1)c1nnc(-c3c(F)cccc3F)cc12` [Example 395, 5-(6-((5R,8S)-3-(2,6-difluorophenyl)-9,9-dimethyl-5,6,7,8-tetrahydro-5,8-methanocinnolin-8-yl)pyrazin-2-yl)pyridin-2(1H)-one] returned a half-maximal inhibitory concentration (IC50) of 4.3 nM. Against the preceding compound, the IC50 is about 2.1-fold lower. As for `CC(C)(O)c1coc(-c2cncc([C@@]34CC[C@@H](c5cc(-c6ccccc6F)nnc53)C4(C)C)n2)n1` [Example 396, 2-(2-(6-((5R,8S)-3-(2-fluorophenyl)-9,9-dimethyl-5,6,7,8-tetrahydro-5,8-methanocinnolin-8-yl)pyrazin-2-yl)oxazol-4-yl)propan-2-ol], the IC50 was determined as 4.8 nM. Compound `Cc1oc(-c2cncc([C@@]34CC[C@@H](c5cc(-c6c(F)cccc6F)nnc53)C4(C)C)n2)nc1C(C)(C)O` [Example 397, 2-(2-(6-((5R,8S)-3-(2,6-difluorophenyl)-9,9-dimethyl-5,6,7,8-tetrahydro-5,8-methanocinnolin-8-yl)pyrazin-2-yl)-5-methyloxazol-4-yl)propan-2-ol] returned an IC50 of 10.4 nM. `CC1(C)[C@H]2CC[C@]1(c1cncc(C3(O)COC3)n1)c1nnc(-c3c(F)cccc3F)cc12` [Example 398, 3-(6-((5R,8S)-3-(2,6-difluorophenyl)-9,9-dimethyl-5,6,7,8-tetrahydro-5,8-methanocinnolin-8-yl)pyrazin-2-yl)oxetan-3-ol] showed an IC50 of 12.5 nM.

As to `CC1(C)[C@H]2CC[C@]1(c1cncc(-c3cn[nH]n3)n1)c1nnc(-c3c(F)cccc3F)cc12` [Example 399], the half-maximal inhibitory concentration (IC50) was determined as 6.4 nM.

Take `CC(C)(O)c1cnc(-c2cncc([C@@]34CC[C@@H](c5cc(-c6c(F)cccc6F)nnc53)C4(C)C)n2)cn1` [Example 400, 2-(6′-((5R,8S)-3-(2,6-difluorophenyl)-9,9-dimethyl-5,6,7,8-tetrahydro-5,8-methanocinnolin-8-yl)-[2,2′-bipyrazin]-5-yl)propan-2-ol]: the concentration for half-maximal inhibition (IC50) was 8.7 nM. On to `CC1(C)[C@H]2CC[C@]1(c1cncc(-c3cnc(=O)[nH]c3)n1)c1nnc(-c3c(F)cccc3F)cc12` [Example 401, 5-(6-((5R,8S)-3-(2,6-difluorophenyl)-9,9-dimethyl-5,6,7,8-tetrahydro-5,8-methanocinnolin-8-yl)pyrazin-2-yl)pyrimidin-2(1H)-one], for which the half-maximal inhibitory concentration (IC50) was determined as 14.7 nM.

Regarding `CC1(C)[C@H]2CC[C@]1(c1cncc(-c3ccc(OCC(N)=O)nc3)n1)c1nnc(-c3c(F)cccc3F)cc12` [Example 402, 2-((5-(6-((5R,8S)-3-(2,6-difluorophenyl)-9,9-dimethyl-5,6,7,8-tetrahydro-5,8-methanocinnolin-8-yl)pyrazin-2-yl)pyridin-2-yl)oxy)acetamide], the 50% inhibitory concentration (IC50) stood at 8.1 nM. This IC50 lies about 1.8-fold lower than the previous one. Compound `CC1(C)[C@H]2CC[C@]1(c1ccnc(-c3ccc(N)nc3)n1)c1nnc(-c3c(F)cccc3F)cc12` [Example 403] showed a half-maximal inhibitory concentration (IC50) of 6.8 nM.
